Assay results: ChEMBL document CHEMBL1671627, “Increasing trends in antimicrobial resistance among clinically important anaerobes and Bacteroides fragilis isolates causing nosocomial infections: emerging resistance to carbapenems” (2008)
≈ marks a conversion by molar mass, not a printed value.

Legend:
Prevotella intermedia [1] = assay: Antibacterial activity against Prevotella intermedia assessed as susceptible isolates by CLSI agar dilution method; type: functional
Fusobacterium mortiferum [2] = assay: Antibacterial activity against Fusobacterium mortiferum by CLSI agar dilution method; type: functional
Clostridium perfringens = assay: microbe, parasite or virus in culture; type: functional
Bacteroides caccae [3] = assay: Antibacterial activity against beta-lactamase producing Bacteroides caccae assessed as resistant isolates by CLSI agar dilution method; type: functional
Parvimonas micra [4] = assay: Antibacterial activity against beta-lactamase producing Micromonas micros assessed as susceptible isolates by CLSI agar dilution method; type: functional
Finegoldia magna [5] = assay: Antibacterial activity against beta-lactamase producing Finegoldia magna assessed as resistant isolates by CLSI agar dilution method; type: functional
Phocaeicola vulgatus [6] = assay: Antibacterial activity against beta-lactamase producing Bacteroides vulgatus assessed as resistant isolates by CLSI agar dilution method; type: functional
[7] = system: Peptostreptococcus anaerobius; assay: Antibacterial activity against beta-lactamase producing Peptostreptococcus anaerobius by CLSI agar dilution method; type: functional
Clostridium tertium [8] = assay: Antibacterial activity against beta-lactamase producing Clostridium tertium assessed as resistant isolates by CLSI agar dilution method; type: functional
Prevotella intermedia [9] = assay: Antibacterial activity against Prevotella intermedia assessed as resistant isolates by CLSI agar dilution method; type: functional
Phocaeicola vulgatus [10] = assay: Antibacterial activity against beta-lactamase producing Bacteroides vulgatus assessed as susceptible isolates by CLSI agar dilution method; type: functional
[11] = system: Prevotella melaninogenica; assay: Antibacterial activity against Prevotella melaninogenica assessed as resistant isolates by CLSI agar dilution method; type: functional
Bacteroides caccae [12] = assay: Antibacterial activity against beta-lactamase producing Bacteroides caccae by CLSI agar dilution method; type: functional
[13] = system: Peptostreptococcus anaerobius; assay: Antibacterial activity against beta-lactamase producing Peptostreptococcus anaerobius assessed as susceptible isolates by CLSI agar dilution method; type: functional
Prevotella bivia [14] = assay: Antibacterial activity against Prevotella bivia assessed as susceptible isolates by CLSI agar dilution method; type: functional
Parvimonas micra [15] = assay: Antibacterial activity against beta-lactamase producing Micromonas micros assessed as resistant isolates by CLSI agar dilution method; type: functional
[16] = system: Bacteroides thetaiotaomicron; assay: Antibacterial activity against beta-lactamase producing Bacteroides thetaiotaomicron assessed as resistant isolates by CLSI agar dilution method; type: functional
[17] = system: Clostridium paraputrificum; assay: Antibacterial activity against beta-lactamase producing Clostridium paraputrificum by CLSI agar dilution method; type: functional
[18] = system: Peptoniphilus asaccharolyticus; assay: Antibacterial activity against beta-lactamase producing Peptoniphilus asaccharolyticus assessed as susceptible isolates by CLSI agar dilution method; type: functional
Bacteroides caccae [19] = assay: Antibacterial activity against beta-lactamase producing Bacteroides caccae assessed as susceptible isolates by CLSI agar dilution method; type: functional
Bacteroides uniformis [20] = assay: Antibacterial activity against beta-lactamase producing Bacteroides uniformis by CLSI agar dilution method; type: functional
Parvimonas micra [21] = assay: Antibacterial activity against beta-lactamase producing Micromonas micros by CLSI agar dilution method; type: functional
Prevotella buccae [22] = assay: Antibacterial activity against Prevotella buccae by CLSI agar dilution method; type: functional; settings: Segatella buccae
Prevotella intermedia [23] = assay: Antibacterial activity against Prevotella intermedia by CLSI agar dilution method; type: functional
Fusobacterium mortiferum [24] = assay: Antibacterial activity against Fusobacterium mortiferum assessed as susceptible isolates by CLSI agar dilution method; type: functional
Fusobacterium varium [25] = assay: Antibacterial activity against Fusobacterium varium assessed as resistant isolates by CLSI agar dilution method; type: functional
Fusobacterium mortiferum [26] = assay: Antibacterial activity against Fusobacterium mortiferum assessed as resistant isolates by CLSI agar dilution method; type: functional
[27] = system: Bacteroides thetaiotaomicron; assay: Antibacterial activity against beta-lactamase producing Bacteroides thetaiotaomicron by CLSI agar dilution method; type: functional
Fusobacterium nucleatum [28] = assay: Antibacterial activity against Fusobacterium nucleatum assessed as resistant isolates by CLSI agar dilution method; type: functional
Clostridium septicum [29] = assay: Antibacterial activity against beta-lactamase producing Clostridium septicum assessed as susceptible isolates by CLSI agar dilution method; type: functional
[30] = system: Bacteroides thetaiotaomicron; assay: Antibacterial activity against beta-lactamase producing Bacteroides thetaiotaomicron assessed as susceptible isolates by CLSI agar dilution method; type: functional
Prevotella bivia [31] = assay: Antibacterial activity against Prevotella bivia by CLSI agar dilution method; type: functional
Phocaeicola vulgatus [32] = assay: Antibacterial activity against beta-lactamase producing Bacteroides vulgatus by CLSI agar dilution method; type: functional
[33] = system: Fusobacterium necrophorum; assay: Antibacterial activity against Fusobacterium necrophorum assessed as susceptible isolates by CLSI agar dilution method; type: functional
Clostridium tertium [34] = assay: Antibacterial activity against beta-lactamase producing Clostridium tertium assessed as susceptible isolates by CLSI agar dilution method; type: functional
Clostridium septicum [35] = assay: Antibacterial activity against beta-lactamase producing Clostridium septicum by CLSI agar dilution method; type: functional
Bacteroides fragilis [36] = assay: Antibacterial activity against Bacteroides fragilis by CLSI agar dilution method; type: functional
Bacteroides uniformis [37] = assay: Antibacterial activity against beta-lactamase producing Bacteroides uniformis assessed as resistant isolates by CLSI agar dilution method; type: functional
Fusobacterium nucleatum [38] = assay: Antibacterial activity against Fusobacterium nucleatum assessed as susceptible isolates by CLSI agar dilution method; type: functional
Clostridium septicum [39] = assay: Antibacterial activity against beta-lactamase producing Clostridium septicum assessed as resistant isolates by CLSI agar dilution method; type: functional
[40] = system: Fusobacterium necrophorum; assay: Antibacterial activity against Fusobacterium necrophorum assessed as resistant isolates by CLSI agar dilution method; type: functional
Veillonella parvula = assay: Antibacterial activity against Veillonella parvula by CLSI agar dilution method; type: functional
Fusobacterium nucleatum [41] = assay: Antibacterial activity against Fusobacterium nucleatum by CLSI agar dilution method; type: functional
[42] = system: Clostridium paraputrificum; assay: Antibacterial activity against beta-lactamase producing Clostridium paraputrificum assessed as resistant isolates by CLSI agar dilution method; type: functional
Finegoldia magna [43] = assay: Antibacterial activity against beta-lactamase producing Finegoldia magna by CLSI agar dilution method; type: functional
Finegoldia magna [44] = assay: Antibacterial activity against beta-lactamase producing Finegoldia magna assessed as susceptible isolates by CLSI agar dilution method; type: functional
[45] = system: Peptoniphilus asaccharolyticus; assay: Antibacterial activity against beta-lactamase producing Peptoniphilus asaccharolyticus by CLSI agar dilution method; type: functional
[46] = system: Peptoniphilus asaccharolyticus; assay: Antibacterial activity against beta-lactamase producing Peptoniphilus asaccharolyticus assessed as resistant isolates by CLSI agar dilution method; type: functional
[47] = system: Fusobacterium necrophorum; assay: Antibacterial activity against Fusobacterium necrophorum by CLSI agar dilution method; type: functional
Prevotella buccae [48] = assay: Antibacterial activity against Prevotella buccae assessed as resistant isolates by CLSI agar dilution method; type: functional, Segatella buccae
Bacteroides fragilis [49] = assay: Antibacterial activity against Bacteroides fragilis assessed as resistant isolates by CLSI agar dilution method; type: functional
Clostridium tertium [50] = assay: Antibacterial activity against beta-lactamase producing Clostridium tertium by CLSI agar dilution method; type: functional
Prevotella buccae [51] = assay: Antibacterial activity against Prevotella buccae assessed as susceptible isolates by CLSI agar dilution method; type: functional, Segatella buccae
[52] = system: Prevotella melaninogenica; assay: Antibacterial activity against Prevotella melaninogenica assessed as susceptible isolates by CLSI agar dilution method; type: functional
Fusobacterium varium [53] = assay: Antibacterial activity against Fusobacterium varium by CLSI agar dilution method; type: functional
[54] = system: Prevotella melaninogenica; assay: Antibacterial activity against Prevotella melaninogenica by CLSI agar dilution method; type: functional
[55] = system: Clostridium paraputrificum; assay: Antibacterial activity against beta-lactamase producing Clostridium paraputrificum assessed as susceptible isolates by CLSI agar dilution method; type: functional
Bacteroides fragilis [56] = assay: Antibacterial activity against Bacteroides fragilis assessed as susceptible isolates by CLSI agar dilution method; type: functional
Fusobacterium varium [57] = assay: Antibacterial activity against Fusobacterium varium assessed as susceptible isolates by CLSI agar dilution method; type: functional
Bacteroides uniformis [58] = assay: Antibacterial activity against beta-lactamase producing Bacteroides uniformis assessed as susceptible isolates by CLSI agar dilution method; type: functional
[59] = system: Peptostreptococcus anaerobius; assay: Antibacterial activity against beta-lactamase producing Peptostreptococcus anaerobius assessed as resistant isolates by CLSI agar dilution method; type: functional
Prevotella bivia [60] = assay: Antibacterial activity against Prevotella bivia assessed as resistant isolates by CLSI agar dilution method; type: functional

C[C@@H](O)[C@H]1C(=O)N2C(C(=O)O)=C(S[C@@H]3CN[C@H](CNS(N)(=O)=O)C3)[C@H](C)[C@H]12 [DORIPENEM]
Activity (Prevotella intermedia [1]): 100%
MIC50 (Fusobacterium mortiferum [2]): 0.12 mg/L (≈ 0.285 µM)
MIC90 (Fusobacterium mortiferum [2]): 0.25 mg/L (≈ 0.595 µM)
MIC (Clostridium perfringens): 0.03 mg/L (≈ 0.0713 µM)
MIC50 (Clostridium perfringens): 0.03 mg/L (≈ 0.0713 µM)
MIC90 (Clostridium perfringens): 2 mg/L (≈ 4.76 µM)
Activity (Bacteroides caccae [3]): 4%
Activity (Parvimonas micra [4]): 100%
Activity (Finegoldia magna [5]): 0%
Activity (Phocaeicola vulgatus [6]): 4%
MIC50 [7]: 0.06 mg/L (≈ 0.143 µM)
MIC90 [7]: 0.5 mg/L (≈ 1.19 µM)
Activity (Clostridium tertium [8]): 0%
Activity (Prevotella intermedia [9]): 0%
Activity (Phocaeicola vulgatus [10]): 92%
Activity [11]: 0%
MIC50 (Bacteroides caccae [12]): 1 mg/L (≈ 2.38 µM)
MIC90 (Bacteroides caccae [12]): 2 mg/L (≈ 4.76 µM)
Activity [13]: 100%
Activity (Prevotella bivia [14]): 100%
Activity (Parvimonas micra [15]): 0%
Activity [16]: 0%
MIC [17]: 0.03 mg/L (≈ 0.0713 µM)
MIC50 [17]: 0.03 mg/L (≈ 0.0713 µM)
MIC90 [17]: 2 mg/L (≈ 4.76 µM)
Activity [18]: 100%
Activity (Bacteroides caccae [19]): 92%
MIC50 (Bacteroides uniformis [20]): 1 mg/L (≈ 2.38 µM)
MIC90 (Bacteroides uniformis [20]): 2 mg/L (≈ 4.76 µM)
MIC50 (Parvimonas micra [21]): 0.06 mg/L (≈ 0.143 µM)
MIC90 (Parvimonas micra [21]): 0.5 mg/L (≈ 1.19 µM)
MIC50 (Prevotella buccae [22]): 0.25 mg/L (≈ 0.595 µM)
MIC90 (Prevotella buccae [22]): 0.5 mg/L (≈ 1.19 µM)
MIC50 (Prevotella intermedia [23]): 0.25 mg/L (≈ 0.595 µM)
MIC90 (Prevotella intermedia [23]): 0.5 mg/L (≈ 1.19 µM)
Activity (Fusobacterium mortiferum [24]): 100%
Activity (Fusobacterium varium [25]): 0%
Activity (Fusobacterium mortiferum [26]): 0%
MIC [27]: 0.5 mg/L (≈ 1.19 µM)
MIC50 [27]: 0.5 mg/L (≈ 1.19 µM)
MIC90 [27]: 2 mg/L (≈ 4.76 µM)
Activity (Fusobacterium nucleatum [28]): 0%
Activity (Clostridium septicum [29]): 100%
Activity [30]: 97%
MIC50 (Prevotella bivia [31]): 0.25 mg/L (≈ 0.595 µM)
MIC90 (Prevotella bivia [31]): 0.5 mg/L (≈ 1.19 µM)
MIC50 (Phocaeicola vulgatus [32]): 1 mg/L (≈ 2.38 µM)
MIC90 (Phocaeicola vulgatus [32]): 2 mg/L (≈ 4.76 µM)
Activity [33]: 100%
Activity (Clostridium tertium [34]): 100%
MIC (Clostridium septicum [35]): 0.03 mg/L (≈ 0.0713 µM)
MIC50 (Clostridium septicum [35]): 0.03 mg/L (≈ 0.0713 µM)
MIC90 (Clostridium septicum [35]): 2 mg/L (≈ 4.76 µM)
MIC50 (Bacteroides fragilis [36]): 0.5 mg/L (≈ 1.19 µM)
MIC90 (Bacteroides fragilis [36]): 8 mg/L (≈ 19 µM)
Activity (Bacteroides uniformis [37]): 4%
Activity (Fusobacterium nucleatum [38]): 100%
Activity (Clostridium septicum [39]): 0%
Activity [40]: 0%
MIC (Veillonella parvula): 0.06 mg/L (≈ 0.143 µM)
MIC50 (Fusobacterium nucleatum [41]): 0.12 mg/L (≈ 0.285 µM)
MIC90 (Fusobacterium nucleatum [41]): 0.25 mg/L (≈ 0.595 µM)
Activity [42]: 0%
MIC50 (Finegoldia magna [43]): 0.06 mg/L (≈ 0.143 µM)
MIC90 (Finegoldia magna [43]): 0.5 mg/L (≈ 1.19 µM)
Activity (Finegoldia magna [44]): 100%
MIC50 [45]: 0.06 mg/L (≈ 0.143 µM)
MIC90 [45]: 0.5 mg/L (≈ 1.19 µM)
Activity [46]: 0%
MIC50 [47]: 0.12 mg/L (≈ 0.285 µM)
MIC90 [47]: 0.25 mg/L (≈ 0.595 µM)
Activity (Prevotella buccae [48]): 0%
Activity (Bacteroides fragilis [49]): 7%
MIC (Clostridium tertium [50]): 0.03 mg/L (≈ 0.0713 µM)
MIC50 (Clostridium tertium [50]): 0.03 mg/L (≈ 0.0713 µM)
MIC90 (Clostridium tertium [50]): 2 mg/L (≈ 4.76 µM)
Activity (Prevotella buccae [51]): 100%
Activity [52]: 100%
MIC50 (Fusobacterium varium [53]): 0.12 mg/L (≈ 0.285 µM)
MIC90 (Fusobacterium varium [53]): 0.25 mg/L (≈ 0.595 µM)
MIC50 [54]: 0.25 mg/L (≈ 0.595 µM)
MIC90 [54]: 0.5 mg/L (≈ 1.19 µM)
Activity [55]: 100%
Activity (Bacteroides fragilis [56]): 88%
Activity (Fusobacterium varium [57]): 100%
Activity (Bacteroides uniformis [58]): 92%
Activity [59]: 0%
Activity (Prevotella bivia [60]): 0%
